In patent US20230219986A1, “NOVEL AMINOPYRIMIDINE EGFR INHIBITOR” (QILU PHARMACEUTICAL CO., LTD., priority 2020, published 2023):
Where two headings read alike, the source gives them in different places.

Experiments:
[1] = target: Ba/F3 De119/T790M/C797S EGFR triple mutant cell line (Homo sapiens, UniProt P00533, T790M/C797S, cells depend on it, form not given); assay: Cell proliferation inhibition experiment (CellTiter-Glo), Ba/F3 De119/T790M/C797S; format: cell-based; settings: Ba/F3 Del19/T790M/C797S EGFR triple mutant cells, 72 hours, Cell Titer-Glo; read-out: Ba/F3 (Del19/T790M/C797S) IC50
[2] = system: EGFR wild-type cell line A431; assay: Cell proliferation inhibition experiment (CellTiter-Glo), A431; format: cell-based; settings: Homo sapiens, A431 cells, Cell Titer-Glo, read-out: A431 EGFR WT IC50
Procedure, shortened: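 Luminescent CellTiter-Glo readout, 30 min at room temperature, after 72 h compound exposure at 37° C., 5% CO2 with 0.1% DMSO final. EGFR wild-type A431 cells were seeded at 800 per well and grown 24 h before dosing. IC50 derived from the dose-response.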

[3] = target: T1, L858R/T790M/C797S triple mutant EGFR (Homo sapiens, UniProt P00533, C797S/L858R/T790M); assay: Enzymology experiment in vitro (HTRF/FRET kinase activity), L858R/T790M/C797S triple mutant EGFR; format: biochemical; settings: HTRF KinEASE-TK
T1 construct: purchased Signalchem
Description: (§1) 1. Experimental Materials
(§2) HTRF KinEASE-TK kit detection reagent, purchased from Cisbio
(§3) 1) 10 nL of gradient diluted compound was transferred into a 384-well experimental plate using Echo 550 (Labcyte).
(§4) 2) 5 μL of 2×EGFR enzyme solution was added to the 384-well experimental plate and incubated at room temperature for 10 minutes.
(§5) 3) 5 μL of 2× substrate solution containing polypeptide and ATP was added to the 384-well experimental plate and incubated at room temperature for 40 minutes.
(§6) 4) 10 μL of detection solution containing EDTA, XL665-labeled streptavidin and Eu^3+-labeled antibody was added thereto and incubated at room temperature for 1 hour.

[4] = target: Ba/F3 L858R/T790M/C797S EGFR triple mutant cell line (Homo sapiens, UniProt P00533, T790M/C797S/L858R, cells depend on it); assay: Cell proliferation inhibition experiment (CellTiter-Glo), Ba/F3 L858R/T790M/C797S; format: cell-based; settings: 72 hours, Cell Titer-Glo, read-out: Ba/F3 (L858R/T790M/C797S) IC50
wild-type EGFR = target: T2, wild-type EGFR (Homo sapiens, UniProt P00533); assay: Enzymology experiment in vitro (HTRF/FRET kinase activity), wild-type EGFR; format: biochemical; settings: HTRF KinEASE-TK
T2 construct: purchased Signalchem
Description: as §1, §2, §3, §4, §5, §6

[5] = read-out: EGFR (L858R/T790M/C797S) IC50

T1 sequence (P00533 25-1210 T790M/C797S/L858R): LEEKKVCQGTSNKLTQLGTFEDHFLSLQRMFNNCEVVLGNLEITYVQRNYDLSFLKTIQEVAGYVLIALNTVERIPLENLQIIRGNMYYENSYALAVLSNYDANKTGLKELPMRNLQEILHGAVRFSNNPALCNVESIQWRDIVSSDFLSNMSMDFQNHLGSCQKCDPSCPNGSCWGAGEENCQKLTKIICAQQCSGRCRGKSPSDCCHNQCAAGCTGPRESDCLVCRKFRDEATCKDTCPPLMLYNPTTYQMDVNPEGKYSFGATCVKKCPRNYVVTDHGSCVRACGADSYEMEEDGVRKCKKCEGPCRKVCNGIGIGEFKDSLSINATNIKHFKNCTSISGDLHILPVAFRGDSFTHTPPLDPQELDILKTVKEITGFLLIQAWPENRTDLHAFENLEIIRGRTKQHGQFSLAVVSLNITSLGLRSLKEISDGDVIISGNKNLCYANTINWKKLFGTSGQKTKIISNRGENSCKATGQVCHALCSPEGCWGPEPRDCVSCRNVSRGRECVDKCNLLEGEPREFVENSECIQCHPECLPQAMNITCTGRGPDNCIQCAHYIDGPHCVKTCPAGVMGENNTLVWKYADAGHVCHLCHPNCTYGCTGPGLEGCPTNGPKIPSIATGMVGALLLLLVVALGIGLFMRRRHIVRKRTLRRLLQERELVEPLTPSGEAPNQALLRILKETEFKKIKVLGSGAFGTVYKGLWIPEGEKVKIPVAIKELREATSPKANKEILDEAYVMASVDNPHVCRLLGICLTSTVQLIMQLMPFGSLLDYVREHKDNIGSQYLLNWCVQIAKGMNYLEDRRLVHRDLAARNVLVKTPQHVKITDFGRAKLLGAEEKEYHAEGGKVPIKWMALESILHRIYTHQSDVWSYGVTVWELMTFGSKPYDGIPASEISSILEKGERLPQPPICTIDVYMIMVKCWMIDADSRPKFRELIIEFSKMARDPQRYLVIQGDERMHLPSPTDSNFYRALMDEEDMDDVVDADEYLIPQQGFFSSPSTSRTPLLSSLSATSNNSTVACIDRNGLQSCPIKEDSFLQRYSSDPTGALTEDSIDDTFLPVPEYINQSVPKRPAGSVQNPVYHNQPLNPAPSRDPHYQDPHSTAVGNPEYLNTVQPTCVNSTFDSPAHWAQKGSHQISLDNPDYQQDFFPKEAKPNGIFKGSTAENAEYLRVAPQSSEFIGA
Chain of Ba/F3 L858R/T790M/C797S EGFR triple mutant cell line (P00533 whole entry T790M/C797S/L858R): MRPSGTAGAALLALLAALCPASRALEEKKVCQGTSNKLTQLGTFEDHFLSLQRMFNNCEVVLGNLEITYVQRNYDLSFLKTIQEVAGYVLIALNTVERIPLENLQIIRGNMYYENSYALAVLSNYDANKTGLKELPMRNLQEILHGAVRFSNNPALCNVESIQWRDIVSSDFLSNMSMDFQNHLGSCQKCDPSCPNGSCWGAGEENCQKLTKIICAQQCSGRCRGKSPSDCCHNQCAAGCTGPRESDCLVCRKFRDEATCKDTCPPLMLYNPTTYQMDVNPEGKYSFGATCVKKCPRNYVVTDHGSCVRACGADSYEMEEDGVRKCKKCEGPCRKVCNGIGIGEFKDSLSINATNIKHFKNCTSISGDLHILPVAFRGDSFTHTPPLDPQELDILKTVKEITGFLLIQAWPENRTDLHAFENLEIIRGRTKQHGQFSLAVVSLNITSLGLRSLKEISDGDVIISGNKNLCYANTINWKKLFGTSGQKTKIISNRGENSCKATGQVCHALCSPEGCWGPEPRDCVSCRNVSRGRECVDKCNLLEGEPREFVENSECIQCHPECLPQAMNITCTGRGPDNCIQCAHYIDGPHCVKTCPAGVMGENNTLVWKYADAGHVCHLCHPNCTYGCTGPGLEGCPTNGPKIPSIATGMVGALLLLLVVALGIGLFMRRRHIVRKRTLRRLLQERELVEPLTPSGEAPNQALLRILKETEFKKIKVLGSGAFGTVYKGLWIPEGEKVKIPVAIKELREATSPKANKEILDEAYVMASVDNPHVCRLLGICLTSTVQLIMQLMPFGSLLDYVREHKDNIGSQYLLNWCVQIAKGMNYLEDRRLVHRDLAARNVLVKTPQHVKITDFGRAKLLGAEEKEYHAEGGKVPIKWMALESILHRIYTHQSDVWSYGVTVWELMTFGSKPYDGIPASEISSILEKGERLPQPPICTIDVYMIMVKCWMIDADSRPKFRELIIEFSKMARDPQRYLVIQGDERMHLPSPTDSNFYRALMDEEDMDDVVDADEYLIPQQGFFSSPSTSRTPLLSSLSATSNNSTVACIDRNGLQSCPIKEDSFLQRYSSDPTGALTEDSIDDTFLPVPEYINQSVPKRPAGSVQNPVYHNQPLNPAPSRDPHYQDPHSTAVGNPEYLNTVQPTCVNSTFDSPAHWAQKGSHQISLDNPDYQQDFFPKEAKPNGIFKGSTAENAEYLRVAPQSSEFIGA
T2 sequence (P00533 25-1210): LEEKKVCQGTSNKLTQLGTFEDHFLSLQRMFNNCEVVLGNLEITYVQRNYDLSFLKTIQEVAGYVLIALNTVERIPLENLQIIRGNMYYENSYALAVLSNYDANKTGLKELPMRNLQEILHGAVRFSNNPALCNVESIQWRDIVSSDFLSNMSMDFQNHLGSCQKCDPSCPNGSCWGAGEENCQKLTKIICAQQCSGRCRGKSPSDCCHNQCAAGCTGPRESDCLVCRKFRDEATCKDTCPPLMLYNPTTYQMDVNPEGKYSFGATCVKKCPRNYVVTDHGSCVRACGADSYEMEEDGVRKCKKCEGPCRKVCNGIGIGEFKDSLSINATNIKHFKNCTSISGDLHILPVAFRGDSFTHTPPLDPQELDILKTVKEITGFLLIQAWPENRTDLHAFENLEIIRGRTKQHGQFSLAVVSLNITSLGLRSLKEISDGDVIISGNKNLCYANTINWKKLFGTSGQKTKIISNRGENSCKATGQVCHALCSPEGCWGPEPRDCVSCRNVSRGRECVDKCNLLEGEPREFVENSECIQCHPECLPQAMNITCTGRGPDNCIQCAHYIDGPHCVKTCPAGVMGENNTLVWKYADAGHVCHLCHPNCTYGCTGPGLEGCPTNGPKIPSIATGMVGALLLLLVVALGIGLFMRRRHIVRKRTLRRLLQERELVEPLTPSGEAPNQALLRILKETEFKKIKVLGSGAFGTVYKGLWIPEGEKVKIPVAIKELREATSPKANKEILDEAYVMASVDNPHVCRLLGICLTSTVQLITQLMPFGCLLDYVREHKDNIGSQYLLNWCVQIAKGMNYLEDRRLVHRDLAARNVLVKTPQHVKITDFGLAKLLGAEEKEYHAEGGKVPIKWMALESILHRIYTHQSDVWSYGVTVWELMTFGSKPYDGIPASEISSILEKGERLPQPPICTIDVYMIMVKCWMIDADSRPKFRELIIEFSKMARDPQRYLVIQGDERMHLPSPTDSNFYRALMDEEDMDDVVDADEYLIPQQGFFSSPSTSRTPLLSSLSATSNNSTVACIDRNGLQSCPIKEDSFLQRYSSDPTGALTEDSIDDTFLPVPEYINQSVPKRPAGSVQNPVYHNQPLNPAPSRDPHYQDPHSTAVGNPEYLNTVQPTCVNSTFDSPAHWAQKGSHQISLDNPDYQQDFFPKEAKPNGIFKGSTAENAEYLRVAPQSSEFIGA
Chain of Ba/F3 De119/T790M/C797S EGFR triple mutant cell line (P00533 with tags, fused parts or gaps DEL746-750/T790M/C797S, form open): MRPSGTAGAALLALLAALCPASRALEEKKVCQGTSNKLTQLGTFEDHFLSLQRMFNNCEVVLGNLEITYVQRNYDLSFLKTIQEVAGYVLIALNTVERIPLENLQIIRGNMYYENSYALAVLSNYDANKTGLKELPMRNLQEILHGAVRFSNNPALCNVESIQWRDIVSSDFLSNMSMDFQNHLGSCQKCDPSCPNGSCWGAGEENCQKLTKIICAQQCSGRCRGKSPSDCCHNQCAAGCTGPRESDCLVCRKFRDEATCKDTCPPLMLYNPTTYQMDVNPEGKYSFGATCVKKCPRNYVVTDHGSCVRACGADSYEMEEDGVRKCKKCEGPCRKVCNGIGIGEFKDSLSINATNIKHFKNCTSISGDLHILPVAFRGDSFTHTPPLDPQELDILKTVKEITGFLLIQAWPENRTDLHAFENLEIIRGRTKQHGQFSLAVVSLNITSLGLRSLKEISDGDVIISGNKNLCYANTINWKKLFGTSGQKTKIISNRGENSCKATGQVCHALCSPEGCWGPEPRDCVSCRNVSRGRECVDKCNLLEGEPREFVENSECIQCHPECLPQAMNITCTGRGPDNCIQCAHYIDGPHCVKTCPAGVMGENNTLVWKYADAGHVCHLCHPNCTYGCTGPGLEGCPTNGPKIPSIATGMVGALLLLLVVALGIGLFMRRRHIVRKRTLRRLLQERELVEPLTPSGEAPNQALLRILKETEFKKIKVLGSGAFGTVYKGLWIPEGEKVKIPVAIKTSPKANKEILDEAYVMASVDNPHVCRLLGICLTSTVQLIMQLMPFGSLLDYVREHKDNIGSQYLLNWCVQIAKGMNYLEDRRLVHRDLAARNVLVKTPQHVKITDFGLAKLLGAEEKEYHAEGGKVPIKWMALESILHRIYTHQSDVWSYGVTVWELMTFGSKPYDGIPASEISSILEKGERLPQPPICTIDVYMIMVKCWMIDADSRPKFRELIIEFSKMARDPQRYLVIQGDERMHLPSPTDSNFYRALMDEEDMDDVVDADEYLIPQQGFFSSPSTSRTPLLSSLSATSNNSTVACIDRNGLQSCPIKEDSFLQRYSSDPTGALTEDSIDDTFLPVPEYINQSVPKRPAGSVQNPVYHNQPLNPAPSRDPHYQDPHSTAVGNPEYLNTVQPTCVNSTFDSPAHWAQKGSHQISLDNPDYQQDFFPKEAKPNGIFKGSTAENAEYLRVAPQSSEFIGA

Row | Structure (SMILES) | GI50 [1] | IC50 ([2]; A-431, 72 h) | IC50 [3, 5] | GI50 [4] | IC50 (wild-type EGFR; read-out: EGFR (WT) IC50) | IC50 ([2]; A-431, 72 hours) | IC50 ([3]; EGFR (L858R/T790M/C797S) IC50(nM)) | IC50 (wild-type EGFR; EGFR (WT) IC50(nM))
1 | COc1cc(N2CCOCC2)c(-c2cnn(C)c2)cc1Nc1ncc(C)c(Nc2ccc3nccnc3c2P(C)(C)=O)n1 [compound 4] | 2.38 nM | 194 nM | 0.28 nM | 13.6 nM | 1.41 nM |  |  | 
2 | COc1ccc(-c2cnn(C)c2)cc1Nc1ncc(Br)c(Nc2ccc3nccnc3c2P(C)(C)=O)n1 [compound 5] | 3.71 nM | 140 nM | 0.03 nM | 12.7 nM | 8.13 nM |  |  | 
3 | COc1ccc(-c2cnoc2)cc1Nc1ncc(Br)c(Nc2ccc3nccnc3c2P(C)(C)=O)n1 [compound 9] | 55 nM | 450 nM | 0.88 nM | 110 nM | 75.7 nM |  |  | 
4 | COc1cc(N2CCC(N(C)C)C2)c(-c2cnn(C)c2)cc1Nc1ncc(Br)c(Nc2ccc3nccnc3c2P(C)(C)=O)n1 (stereo not drawn) [compound 10] | 6.06 nM | 47 nM | 0.1 nM | 10.7 nM | 4.55 nM |  |  | 
5 | COc1cc(N2CC3CC2CN3C)c(-c2cnn(C)c2)cc1Nc1ncc(Br)c(Nc2ccc3nccnc3c2P(C)(C)=O)n1 (stereo not drawn) [compound 11] | 83.4 nM | 159 nM | 0.07 nM | 224 nM | 12.1 nM |  |  | 
6 | COc1cc(N2CCCN(C)CC2)c(-c2cnn(C)c2)cc1Nc1ncc(Br)c(Nc2ccc3nccnc3c2P(C)(C)=O)n1 [compound 12] | 6.32 nM | 76.1 nM | 0.05 nM | 45.9 nM | 1.59 nM |  |  | 
7 | COc1cc(N2CCN(C(C)=O)CC2)c(-c2cnn(C)c2)cc1Nc1ncc(Br)c(Nc2ccc3nccnc3c2P(C)(C)=O)n1 [compound 14] | 5.98 nM | 150 nM | 0.15 nM | 13.6 nM | 1.06 nM |  |  | 
8 | COc1cc(N2CCC3(CC2)COC3)c(-c2cnn(C)c2)cc1Nc1ncc(Br)c(Nc2ccc3nccnc3c2P(C)(C)=O)n1 [compound 15] | 4.62 nM | 177 nM | < 0.05 nM | 15.6 nM | 12.2 nM |  |  | 
9 | COc1cc(N2CCC(N3CCN(C)CC3)CC2)c(-c2cnn(C)c2)cc1Nc1ncc(Br)c(Nc2ccc3nccnc3c2P(C)(C)=O)n1 [compound 18] | 2.87 nM | 45.4 nM | 0.08 nM | 20.9 nM | 1.26 nM |  |  | 
10 | COc1cc(N2CCOCC2)c(-c2cnoc2)cc1Nc1ncc(Br)c(Nc2ccc3nccnc3c2P(C)(C)=O)n1 [compound 19] | 6.71 nM | 488 nM | 0.17 nM | 68.8 nM | 39.3 nM |  |  | 
11 | COc1ccc(-n2cccn2)cc1Nc1ncc(Br)c(Nc2ccc3nccnc3c2P(C)(C)=O)n1 [compound 20] | 277 nM | 1590 nM | 9.21 nM | 629 nM | 179 nM |  |  | 
12 | COc1cc(N(C)CCN(C)C)c(-c2cnn(C)c2)cc1Nc1ncc(Br)c(Nc2ccc3nccnc3c2P(C)(C)=O)n1 [compound 21] | 4.03 nM | 63.9 nM | 0.06 nM | 18.1 nM | 1.57 nM |  |  | 
13 | COc1c(Nc2ncc(Br)c(Nc3ccc4nccnc4c3P(C)(C)=O)n2)cc(-c2cnn(C)c2)c(N2CCOCC2)c1F [compound 23] | 8.67 nM | 195 nM | 1.92 nM | 30.3 nM | 40.3 nM |  |  | 
14 | CCOP(C)(=O)c1c(Nc2nc(Nc3cc(-c4cnn(C)c4)c(N4CCOCC4)c(F)c3OC)ncc2Br)ccc2nccnc12 (stereo not drawn) [compound 24] | 45.2 nM |  |  | 139 nM |  | 567 nM | 11.4 nM | 346 nM
15 | COc1cc(N2CCOCC2)c(-c2cnn(C)c2)cc1Nc1ncc(C(F)(F)F)c(Nc2ccc3nccnc3c2P(C)(C)=O)n1 [compound 25] | 2.41 nM | 159 nM | 0.19 nM | 8.64 nM | 18.7 nM |  |  | 
16 | COc1cc(N2CCC(OC)CC2)c(-c2cnn(C)c2)cc1Nc1ncc(Br)c(Nc2ccc3nccnc3c2P(C)(C)=O)n1 [compound 26] | 1.22 nM | 152 nM | 0.49 nM | 4.25 nM | 5.75 nM |  |  | 
17 | COCCN(C)c1cc(OC)c(Nc2ncc(Br)c(Nc3ccc4nccnc4c3P(C)(C)=O)n2)cc1-c1cnn(C)c1 [compound 28] | 4.73 nM | 362 nM | 0.13 nM | 13.7 nM | 15.4 nM |  |  | 

Row | Structure (SMILES) | GI50 [1] | IC50 ([2]; A-431, 72 h) | IC50 [3, 5] | GI50 [4] | IC50 (wild-type EGFR; read-out: EGFR (WT) IC50) | IC50 ([2]; A-431, 72 hours) | IC50 ([3]; EGFR (L858R/T790M/C797S) IC50(nM)) | IC50 (wild-type EGFR; EGFR (WT) IC50(nM))
18 | CN(C)c1c(-c2cnn(C)c2)cc(Nc2ncc(Br)c(Nc3ccc4nccnc4c3P(C)(C)=O)n2)c2c1CCO2 [compound 29] | 1.29 nM | 121 nM | 0.06 nM | 4.25 nM | 3.37 nM |  |  | 
19 | COc1ncc(-c2cnn(C)c2)cc1Nc1ncc(Br)c(Nc2ccc3nccnc3c2P(C)(C)=O)n1 [compound 30] | 12.1 nM | 284 nM | 1.01 nM | 62.6 nM | 55.7 nM |  |  | 
20 | COc1cc(N(C)C)c(-c2cnn(C)c2)cc1Nc1ncc(Br)c(Nc2ccc3nccnc3c2P(C)(C)=O)n1 [compound 32] | 0.98 nM | 208 nM | 0.22 nM | 5.45 nM | 3.07 nM |  |  | 
21 | Cn1cc(-c2cc(Nc3ncc(Br)c(Nc4ccc5nccnc5c4P(C)(C)=O)n3)c(OCC(F)(F)F)nc2N2CCOCC2)cn1 [compound 34] | 2.04 nM | 462 nM | 0.27 nM | 8.94 nM | 15.2 nM |  |  | 
22 | CCOc1nc(N2CCOCC2)c(-c2cnn(C)c2)cc1Nc1ncc(Br)c(Nc2ccc3nccnc3c2P(C)(C)=O)n1 [compound 36] | 2.63 nM | 320 nM | 0.54 nM | 17.7 nM | 21.9 nM |  |  | 
23 | COc1nc(N2CCOCC2)c(-c2cn(C)nc2C)cc1Nc1ncc(Br)c(Nc2ccc3nccnc3c2P(C)(C)=O)n1 [compound 37] | 32.6 nM | 1140 nM | 3.18 nM | 65.6 nM | 268 nM |  |  | 
24 | Cc1nc(N2CCOCC2)c(-c2cnn(C)c2)cc1Nc1ncc(Br)c(Nc2ccc3nccnc3c2P(C)(C)=O)n1 [compound 38] | 10.2 nM | 295 nM | 0.23 nM | 32.6 nM | 17.8 nM |  |  | 
25 | Cn1cc(-c2cc3c(c(Nc4ncc(Br)c(Nc5ccc6nccnc6c5P(C)(C)=O)n4)c2)OCC3)cn1 [compound 39] | 4.07 nM | 41.3 nM | 0.06 nM | 9.69 nM | 7.45 nM |  |  | 
26 | COc1cc(C(=O)N(C)C)c(-c2cnn(C)c2)cc1Nc1ncc(Br)c(Nc2ccc3nccnc3c2P(C)(C)=O)n1 [compound 40] | 1130 nM | 1180 nM | 2.85 nM | 542 nM | 55.3 nM |  |  | 
27 | COc1cc(N2CCOCC2)c(-c2cn(C)nc2C)cc1Nc1ncc(Br)c(Nc2ccc3nccnc3c2P(C)(C)=O)n1 [compound 43] | 16.4 nM | 880 nM | 0.47 nM | 29.7 nM | 95.3 nM |  |  | 
28 | COc1cc(N2CCOCC2)c(-c2cnn(C)c2)nc1Nc1ncc(C)c(Nc2ccc3nccnc3c2P(C)(C)=O)n1 [compound 71] | 99.4 nM | > 10000 nM | 1.7 nM | 316 nM | 38.9 nM |  |  | 
29 | COc1cc(N2CCOCC2)c(-c2cnn(C)c2)cc1Nc1ncc(Cl)c(Nc2ccc3nccnc3c2P(C)(C)=O)n1 [compound 72] | 4.54 nM | 370 nM | 0.2 nM | 13.5 nM | 4.69 nM |  |  | 
30 | COc1cc(C23CCOCC2C3)c(-c2cnn(C)c2)cc1Nc1ncc(Br)c(Nc2ccc3nccnc3c2P(C)(C)=O)n1 (stereo not drawn) [compound 77] | 14.4 nM | 480 nM | 1.24 nM | 26.4 nM | 114 nM |  |  | 
31 | COc1cc(N2CCOCC2)c(-c2cnn(C(F)F)c2)cc1Nc1ncc(Br)c(Nc2ccc3nccnc3c2P(C)(C)=O)n1 [compound 78] | 6.76 nM | 550 nM | 0.53 nM | 14.4 nM | 45.5 nM |  |  | 
32 | COc1cc(N2CCOCC2)c(-c2cnn(C)c2)cc1Nc1ncc(F)c(Nc2ccc3nccnc3c2P(C)(C)=O)n1 [compound 81] | 19.1 nM | ≥ 10000 nM | 0.34 nM | 32.4 nM | 7.68 nM |  |  | 
33 | COc1cc(N2CCOCC2)c(-c2cccs2)cc1Nc1ncc(Br)c(Nc2ccc3nccnc3c2P(C)(C)=O)n1 [compound 83] | 34 nM | 2420 nM | 3.95 nM | 58.9 nM | 1000 nM |  |  | 
